From patent US20250025500A1, “PHOSPHATASE INHIBITORS AS NK CELLS MODULATORS FOR THE TREATMENT OF CANCER” (Kanyr Pharma Inc., priority 2021, published 2025)

Tests used:
Format in all cases: cell-based, Human
[1] = test system: NK-92 cells against K-562 cells; assay: NK-92 cytolytic assay against K-562 tumor target cells (flow cytometry); details: three days
Procedure: (§1) Human NK cell line NK-92 was purchased from American Type Culture Collection (ATCC) and cultured in α-MEM Essential Medium (no ribonucleoside and deoxyribonucleoside) supplemented with 0.2 mM Myo-inositol, 0.02 mM Folic Acid, 0.1 mM β-mercaptoethanol, 1% of Non-essential Amino Acids, 1×L-Glutamax, 1% of Penicillin/Streptomycin, 12.5% of heat-inactivated Horse, and 12.5% of heat-inactivated Characterized Fetal Bovine Serum or FBS. The media was supplemented freshly with 200 IU/mL of IL-2 upon cell thawing for one passage and 100 IU/mL of IL-2 for cell expansion. Human tumor cell lines K-562 and Reh were purchased from ATCC and were cultured in RPM11640 Medium supplemented with 1% of Penicillin/Streptomycin and 10% of heat inactivated FBS. HEK293T/17 cells and HCT116 cells were cultured in Dulbecco's Modified Eagle's Medium (DMEM) High Glucose Medium supplemented with 1% of Penicillin/Streptomycin and 10% of FBS. All cell lines were maintained in 5% CO2, 37° C. incubator, except that NK-92 were maintained in 6.5% CO2 incubator at 37° C. All cell lines were maintained below 30 passages and tested regularly for mycoplasma infection using PCR.
NK-92 anti-tumor cytolysis function was assessed by flow cytometry-based analysis. Tumor target cells K-562 and Reh were labelled with cell tracker CFSE ([…]) or CMRA (5 μM) according to manufacturer's protocol at a maximum of one day before cytolysis experiment. On the experiment day, labelled tumor target cells were washed once with PBS and resuspend to desired cell concentration in complete cell media. NK-92 cells were washed and resuspended in complete media without cytokines to desired cell concentration. NK-92 cells and tumor target cells were plated at various effector: target (E:T) ratios with basal cell numbers at 50,000 cells per well in round-bottom 96-well plate and were co-cultured for 3 hours in 5% CO2, 37° C. incubator. After co-culture, cells were washed once with ice-cold PBS and stained with fixable viability dyes: Aqua (Invitrogen™) or UV Blue (Invitrogen™) or eFluor 780 (eBioscience Invitrogen™) at 1:2000 in dark for 20 mins at 4° C. Stained cells were washed twice with ice cold PBS and were fixed with 1% Paraformaldehyde (PFA) for 1 hour or 2% PFA for 30 mins in dark at 4° C. Flow cytometry sample acquisition was performed with BDO LSRFortessa™ with a UV laser at Flow Cytometry Core Facility, McGill University, and data was analyzed with FlowJo™ 10.7.1 and summarized with Prism™ 9 (GraphPad™). Calculation for % of specific cytolysis was followed by the equation: […]

[2] = test system: NK-92 cells against Reh cells; assay: NK-92 cytolytic assay against NK resistant Reh target cells; details: 30 μM three days, IL-2 100 IU/mL, 3 h assay
Procedure: as §1, with “All cell lines were maintained below 30 passages and tested regularly for mycoplasma infection using PCR.” left out
NK-92 anti-tumor cytolysis function was assessed by flow cytometry-based analysis. […] Flow cytometry sample acquisition was performed with BDO LSRFortessa™ with a UV laser at Flow Cytometry Core Facility, McGill University, and data was analyzed with FlowJo™ 10.7.1 and summarized with Prism™ 9 (GraphPad™). […]

[3] = test system: NK-92 cells; assay: Lytic granule protein expression in NK-92 (flow cytometry, Western blot)
Procedure: (§2) Total cell lysate was prepared with modified RIPA buffer (1M Tris-HCl (pH 7.5), 5M NaCl, 0.25% sodium deoxycholate, 10% NP-40 and 10 mM sodium fluoride) supplemented with ethylenediaminetetraacetic acid (EDTA)-free protease inhibitor (Roche™) and 2 mM sodium orthovanadate (Sigma-Aldrich™). Protein levels were quantified by bicinchoninic acid (BCA) assay. Protein lysate was separated by 10% SDS-PAGE and Western analysis was performed using primary antibodies listed in the tables below followed with horseradish peroxidase (HRP, 1:10,000, Jackson ImmunoResearch™) conjugated secondary antibodies.
NK-92 cells pre-treated with L598 (30 μM) or vehicle control were stimulated with K-562 tumor target cells [effector: target (E:T) at 1:1] or PMA/lonomycin (1 μg/mL each) or no-stimulation control with K-562 complete media, respectively. Anti-CD107a or LAMP-1 antibody (1:100, PE/Cy7 conjugated, clone H4A3, from BioLegend®) was added to cells at the start of degranulation assay. Golgi stop (containing Monensin, 1 μM) and Golgi plug (containing Brefeldin A, 4 μg/mL) were added to cells one hour after degranulation assay started and were kept until the end of the 6-hour-degranulation assay. Intracellular staining of GrB (1:40, PE conjugated, clone QA18A28, from BioLegend®) and PRF (1:40, FITC conjugated, clone B-D48, from BioLegend®) were performed with the Fixation/Permeabilization Solution Kit (BD® Biosciences) according to the manufacture's protocol. Cells were stained with fixable viability dye (1:2000) for 20 mins on ice and in dark, and blocked with FcBlock (1:20, diluted in 1× Perm/Wash buffer, Human truStain FcX from BioLegend®) for 5 mins at room temperature and in dark before intracellular staining. Cell gating and percentage of population quantification was based on no-stimulation control. For kinetics of degranulation assay, measurements were taken over three hours at 15 mins, 30 mins, 60 mins, 120 mins and 180 mins, with L598 (30 μM, three days) treated group and vehicle control group under the condition of tumor target cell K-562 stimulation (E: T at 1:1) or no stimulation. Intracellular cytolytic granule contents GrA, GrB and PRF were measured as mentioned previously.

[4] = test system: JAK/STAT signaling in NK-92 cells; assay: JAK/STAT signaling Western blot and IL-2 stimulation assay in NK-92; details: regular cell culture, inhibitor titration, three days
Procedure: as §2
For cytokine stimulation assay, NK-92 cells were pre-treated with L598 (30 μM) or vehicle control for three days. Before IL-2 stimulation, NK-92 cells were washed once with serum depleted cell media (no IL-2) and were starved for six hours in presence of L598 or vehicle control. After starvation, NK-92 cells were stimulated with IL-2 across a gradient concentration ranging from 0 to 90 IU/mL for 15 mins at 37° C. After incubation, cells were directly lysed with 2× concentrated TNE buffer and then boiled in 1× Laemmli Buffer to prepare cell lysates. Two independent experiments were performed.

KQ791
tumor cytolysis by NK-92 against K-562 with inhibitor titration ([1]; dosage increased up to 90 μM, various E:T ratios): gradual increasing of tumor cytolysis | NK-92 cytolysis towards NK resistant target cells Reh [2]: had no effect | protein expression of perforin and granzyme B ([3]; gradual increasing concentration, three days): upregulated in a dosage dependent manner | granzyme A protein expression ([3]; with or without inhibitor treatment): relatively stable | phosphorylation of STAT2 and STAT6 [4]: relatively stable | phosphorylation of STAT1, STAT3, STAT4 and STAT5 ([4]; dosage dependent): increased phosphorylation

TGF-β1: immune regulatory cytokine added to NK-92 culture
effect of added TGF-β1 on NK-92 cytolysis against K-562 ([1]; TGF-β 10 ng/mL, IL-2 media): significantly reduced

B1: IL-4: Th2 cytokine IL-4 added to NK-92 culture (protein, UniProt P05112 25-153, looked up)
Interleukin-4: HKCDITLQEIIKTLNSLTEQKTLCTELTVTDIFAASKNTTEKETFCRAATVLRQFYSHHEKDTRCLGATAQQFHRHKQLIRFLKRLDRNLWGLAGLNSCPVKEANQSTLENFLERLKTIMREKYSKCSS
effect of added IL-4 on NK-92 cytolysis against K-562 ([1]; IL-4 10 ng/mL, IL-2 media, with or without L598): did not reduce nor improve
